# Data reported in US11052063B2, “Methods of reducing RLP-C” (Amarin Pharmaceuticals Ireland Limited, priority 2014, dated 2021).
# System: Serum RLP-C
# Experiment: 12-week placebo-controlled study (MARINE), serum RLP-C by immunoseparation assay, patients with fasting TG ≥500 mg/dL
# Type: in vivo, human
# Settings: for Median Change from Baseline in RLP-C vs. Placebo: Hodges-Lehmann estimate; for Median Change from Baseline in RLP-C vs. Placebo / RLP-C Concentration End of Treatment: week 12; for RLP-C Concentration Change: median change from baseline to week 12; for RLP-C Concentration Baseline / RLP-C Concentration End of Treatment: median; for RLP-C Concentration Baseline: before treatment
# Experimental: A multi-center, placebo-controlled randomized, double-blind, 12-week study with an open-label extension was performed to evaluate the efficacy and safety of AMR101 in patients with fasting triglyceride levels≥500 mg/dL. The primary objective of the study was to determine the efficacy of >96%, by weight of all fatty acids present, ethyl-EPA (“AMR101”) 2 g daily and 4 g daily, compared to placebo, in lowering fasting TG levels in patients with fasting TG levels≥500 mg/dL and ≤1500 mg/dL (≥5.65 mmol/L and ≤16.94 mmol/L). The population for this study was men and women (women of childbearing potential needed to be on contraception or practice abstinence) >18 years of age with a body mass index≤45 kg/m^2 who were not on lipid-altering therapy or were not currently on lipid-altering therapy. Patients currently on statin therapy (with or without ezetimibe) were evaluated by the investigator as to whether this therapy could be safely discontinued at screening, or if it should have been continued. If statin therapy (with or without ezetimibe) was to be continued, dose(s) must have been stable for ≥4 weeks prior to randomization. Patients taking non-statin, lipid-altering medications (niacin>200 mg/day, fibrates, fish oil, other products containing omega-3 fatty acids, or other herbal products or dietary supplements with potential lipid-altering effects), either alone or in combination with statin therapy (with or without ezetimibe), must have been able to safely discontinue non-statin, lipid-altering therapy at screening. Approximately 240 patients were randomized at approximately 50 centers in North America, South America, Central America, Europe, India, and South Africa. The study was a 58- to 60-week, Phase 3, multi-center study consisting of 3 study periods: (1) a 6- to 8-week screening period that included a diet and lifestyle stabilization and washout period and a TG qualifying period; (2) a 12-week, double-blind, randomized, placebo-controlled treatment period; and (3) a 40-week, open-label, extension period. After confirmation of qualifying fasting TG values, eligible patients entered a 12-week, randomized, double-blind treatment period. At Visit 4 (Week 0), patients were randomly assigned to one of the following treatment groups: • AMR101 2 g daily, • AMR101 4 g daily, or • Placebo. Eligible patients were randomly assigned at Visit 4 (Week 0) to orally receive AMR101 2 g daily, AMR101 4 g daily, or placebo for the 12-week double-blind treatment period. AMR101 was provided in 1 g liquid-filled, oblong, gelatin capsules. The matching placebo capsule was filled with light liquid paraffin and contained 0 g of AMR101. During the double-blind treatment period, patients took 2 capsules (AMR101 or matching placebo) in the morning and 2 in the evening for a total of 4 capsules per day. Patients in the AMR101 2 g/day treatment group received 1 AMR101 1 g capsule and 1 matching placebo capsule in the morning and in the evening. Patients in the AMR101 4 g/day treatment group received 2 AMR101 1 g capsules in the morning and evening. The primary efficacy variable for the double-blind treatment period was percent change in TG from baseline to Week 12 endpoint. […]
# [1] = 2 g/day, Baseline TG >750 mg/dl
# [2] = 2 g/day, Baseline TG ≤750 mg/dl
# [3] = 4 g/day, Baseline TG >750 mg/dl
# [4] = 4 g/day, Baseline TG ≤750 mg/dl
compound,measurement,setting,value
"CC/C=C\C/C=C\C/C=C\C/C=C\C/C=C\CCCC(=O)OCC [AMR101, ethyl-EPA]",RLP-C compared to placebo,"2 g/day treatment group, 12 weeks",reduced RLP-C compared to placebo
same,Median Change from Baseline in RLP-C vs. Placebo,[1],−25.4%
same,RLP-C Concentration Change,[1],−10.7%
same,RLP-C Concentration Baseline,[1],66.0 mg/dL
same,RLP-C Concentration End of Treatment,[1],65.0 mg/dL
same,Median Change from Baseline in RLP-C vs. Placebo,[2],−7.3%
same,RLP-C Concentration Change,[2],18.2%
same,RLP-C Concentration Baseline,[2],27.5 mg/dL
same,RLP-C Concentration End of Treatment,[2],32.5 mg/dL
same,Median Change from Baseline in RLP-C vs. Placebo,"2 g/day, ITT",−14.9%
same,RLP-C Concentration Change,"2 g/day, ITT",5.8%
same,RLP-C Concentration Baseline,"2 g/day, ITT",43.0 mg/dL
same,RLP-C Concentration End of Treatment,"2 g/day, ITT",44.5 mg/dL
same,Median Change from Baseline in RLP-C vs. Placebo,"2 g/day, No Statin Use",−8.5%
same,RLP-C Concentration Change,"2 g/day, No Statin Use",3.0%
same,RLP-C Concentration Baseline,"2 g/day, No Statin Use",45.0 mg/dL
same,RLP-C Concentration End of Treatment,"2 g/day, No Statin Use",44.5 mg/dL
same,Median Change from Baseline in RLP-C vs. Placebo,"2 g/day, With Statin Use",−41.6%
same,RLP-C Concentration Change,"2 g/day, With Statin Use",29.2%
same,RLP-C Concentration Baseline,"2 g/day, With Statin Use",31.5 mg/dL
same,RLP-C Concentration End of Treatment,"2 g/day, With Statin Use",46.5 mg/dL
same,median placebo-adjusted reductions in RLP-C,"4 g/day treatment group, 12 weeks, p=0.0041, stated as reduction",29.8%
same,reductions in RLP-C compared to baseline,"4 g/day treatment group, 12 weeks, stated as reduction",16.1%
same,Median Change from Baseline in RLP-C vs. Placebo,[3],−37.5%
same,RLP-C Concentration Change,[3],−25.4%
same,RLP-C Concentration Baseline,[3],89.5 mg/dL
same,RLP-C Concentration End of Treatment,[3],68.5 mg/dL
same,Median Change from Baseline in RLP-C vs. Placebo,[4],−26.1%
same,RLP-C Concentration Change,[4],−8.8%
same,RLP-C Concentration Baseline,[4],34.0 mg/dL
same,RLP-C Concentration End of Treatment,[4],29.0 mg/dL
same,Median Change from Baseline in RLP-C vs. Placebo,"4 g/day, ITT",−29.8%
same,RLP-C Concentration Change,"4 g/day, ITT",−16.1%
same,RLP-C Concentration Baseline,"4 g/day, ITT",45.0 mg/dL
same,RLP-C Concentration End of Treatment,"4 g/day, ITT",38.0 mg/dL
same,Median Change from Baseline in RLP-C vs. Placebo,"4 g/day, No Statin Use",−21.4%
same,RLP-C Concentration Change,"4 g/day, No Statin Use",−16.6%
same,RLP-C Concentration Baseline,"4 g/day, No Statin Use",45.0 mg/dL
same,RLP-C Concentration End of Treatment,"4 g/day, No Statin Use",39.5 mg/dL
same,Median Change from Baseline in RLP-C vs. Placebo,"4 g/day, With Statin Use",−56.8%
same,RLP-C Concentration Change,"4 g/day, With Statin Use",−16.1%
same,RLP-C Concentration Baseline,"4 g/day, With Statin Use",37.0 mg/dL
same,RLP-C Concentration End of Treatment,"4 g/day, With Statin Use",33.0 mg/dL
